Reference: patent US20080125469A1, “Thiadiazole compounds and methods of use thereof” (Wyeth, priority 2006, published 2008)

Target: T1, purified recombinant human Aggrecanase-2 (Agg2-Phe628) (Homo sapiens, UniProt Q9UNA0)
T1 construct: (Agg2-Phe628) (MW=41,737), which is a truncated form of full-length human aggrecanase-2; made in house; host or cells: CHO cells
T1 sequence (Q9UNA0 262-628 limits assumed): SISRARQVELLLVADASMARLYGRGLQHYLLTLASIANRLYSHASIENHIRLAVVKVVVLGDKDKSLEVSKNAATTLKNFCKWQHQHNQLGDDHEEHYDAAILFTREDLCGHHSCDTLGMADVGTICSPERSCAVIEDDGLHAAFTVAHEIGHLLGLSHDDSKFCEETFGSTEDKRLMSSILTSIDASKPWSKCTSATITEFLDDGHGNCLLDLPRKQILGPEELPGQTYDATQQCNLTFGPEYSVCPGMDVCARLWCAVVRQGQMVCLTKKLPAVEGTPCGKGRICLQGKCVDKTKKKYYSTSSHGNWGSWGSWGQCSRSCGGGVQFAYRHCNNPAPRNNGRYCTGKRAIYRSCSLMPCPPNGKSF
Assay: Aggrecanase 2 continuous in vitro fluorescence assay
Format: biochemical
Details: Agg2-Phe628 0.5 μg/ml, substrate 25 μM, 30° C.; read-out: IC50
Experimental: A continuous vitro fluorescence assay was employed, wherein the enzyme used in the assay was a purified recombinant human Aggrecanase-2 (Agg2-Phe628) (MW=41,737), which is a truncated form of full-length human aggrecanase-2 that was expressed in CHO cells and purified prior to use. The final concentration of Agg2-Phe628 was 0.5 μg/ml. The buffer used in this assay was 50 mM HEPES, pH 7.5, 100 mM NaCl, 5 mM CaCl2, 0.1% CHAPS, 5% glycerol. The substrate used in the assay was a synthetic peptide having the sequence ABz-[sequence]-Dap(Dnp)-KK—NH2 (>95% pure by HPLC, AnaSpec, Inc.), wherein Abz refers to ortho-aminobenzyl, a fluorescent group which is quenched by energy transfer to a 2,4-dinitrophenyl group. The final concentration of substrate in the assay was 25 μM and was spectrophotometrically determined using the extinction coefficient at 354 nm of 18,172 M^−1cm^−1. The Vmax and Km for this enzyme/substrate reaction were determined to be insensitive to DMSO up to at least 10% (v/v).
The total reaction volume was 100 μl. The buffer and enzyme were added first followed by addition of 10× inhibitor from the dilution plate. Separate enzyme and buffer samples were included in order to obtain the maximal rate of substrate cleavage. The reaction was allowed to stand at 30° C. for 15 minutes, then substrate was added, the resultant solution was mixed. The resultant reaction was allowed to progress, with monitoring, for 40 minutes at 30° C. in kinetic mode using λex: 340 nm and λem: 420 (GeminiXS Molecular Devices).
The fluorescence intensity is linear during the time of data collection. The slope of the line (Vmax/sec) represents the initial reaction rate, ν. The maximal rate of cleavage of substrate was determined in the absence of inhibitor. The percent inhibition of activity in the presence of inhibitor was calculated using the following equation:
% inhibition=(1−ν(RFU/sec))/Maximal Rate(RFU/sec))*100
The IC50 was obtained by fitting the initial rate, ν or % inhibition at each concentration of inhibitor to the following equation:
This model describes a sigmoidal curve with an adjustable baseline, wherein:
y is the % inhibition or initial rate of reaction;
C is the concentration of inhibitor under test;
a is the limiting response as C approaches zero. As C increases without bound y tends toward its lower limit, d;
y is halfway between the lower and upper asymptotes when C=IC50; and
n is the Hill coefficient. The sign of n is positive when the response increases with increasing dose and is negative when the response decreases with increasing dose (inhibition).

`CCc1ccc2c(c1)C1(NN=C(c3ccc(OC)cc3)S1)C(=O)N2` (stereo not drawn) [Compound 29, 5-ethyl-5′-(4-methoxyphenyl)-3′H-spiro[indole-3,2′-[1,3,4]thiadiazol]-2(1H)-one] and `COc1ccc(C2=NNC3(S2)C(=O)N(c2cccc([N+](=O)[O-])c2)c2ccc(C)cc23)cc1` (stereo not drawn) [Compound 27, 5′-(4-methoxyphenyl)-5-methyl-1-(3-nitrophenyl)-3′H-spiro[indole-3,2′-[1,3,4]thiadiazol]-2(1H)-one] are within 1.5-fold of each other in IC50: 1360 nM for the first, 995 nM for the second.

Compared with `O=C1Nc2ccc(Br)cc2C12NN=C(c1ccccc1)S2` (stereo not drawn) [Compound 54, 5-bromo-5′-phenyl-3′H-spiro[indoline-3,2′-[1,3,4]thiadiazol]-2-one], `COc1ccc(C2=NNC3(S2)C(=O)Nc2c3ccc(Cl)c2C)cc1` (stereo not drawn) [Compound 17, 6-chloro-5′-(4-methoxyphenyl)-7-methyl-3′H-spiro[indole-3,2′-[1,3,4]thiadiazol]-2(1H)-one] is 13-fold lower in IC50: 13600 nM for the first, 1040 nM for the second. The second is the more potent here.

Going from `CCCc1ccc2c(c1)NC(=O)C21NN=C(c2ccc(OC)cc2)S1` (stereo not drawn) [Compound 15, 5′-(4-methoxyphenyl)-6-propyl-3′H-spiro[indole-3,2′-[1,3,4]thiadiazol]-2(1H)-one] to `CCN1C(=O)C2(NN=C(c3ccc(OC)cc3)S2)c2cc(F)c(N3CCN(C)CC3)cc21` (stereo not drawn) [Compound 21, 1-ethyl-5-fluoro-5′-(4-methoxyphenyl)-6-(4-methylpiperazin-1-yl)-3′H-spiro[indole-3,2′-[1,3,4]thiadiazol]-2(1H)-one], the IC50 rises from 775 nM to 5420 nM (7-fold).

“1-benzyl-5′-(4-methoxyphenyl)-3′H-spiro[indole-3,2′-[1,3,4]thiadiazol]-2(1H)-one [Compound 10]” and `Cc1ccc(C2=NNC3(S2)C(=O)N(c2ccccc2C)c2ccc(C)cc23)cc1` (stereo not drawn) [Compound 32, 5-methyl-1-(2-methylphenyl)-5′-(4-methylphenyl)-3′H-spiro[indole-3,2′-[1,3,4]thiadiazol]-2(1H)-one] are within 1.5-fold of each other in IC50: 874 nM for the first, 1220 nM for the second.

`CC(=O)N1C(=O)C2(NN=C(c3ccccc3)S2)c2ccccc21` (stereo not drawn) [Compound 56, 1-acetyl-5′-phenyl-3′H-spiro[indoline-3,2′-[1,3,4]thiadiazol]-2-one] and `COc1ccc(C2=NNC3(S2)C(=O)Nc2ccccc23)cc1` (stereo not drawn) [Compound 3, 5′-(4-methoxyphenyl)-3′H-spiro[indole-3,2′-[1,3,4]thiadiazol]-2(1H)-one] are within 1.5-fold of each other in IC50: 12500 nM for the first, 13400 nM for the second.

Same assay, conditions: inhibitor concentration not given

Going from `CCc1ccc2c(c1)C1(NN=C(c3ccc(C)cc3)S1)C(=O)N2` (stereo not drawn) [Compound 48, 5-ethyl-5′-(4-methylphenyl)-3′H-spiro[indole-3,2′-[1,3,4]thiadiazol]-2(1H)-one] to `Cc1ccc(C2=NNC3(S2)C(=O)N(C)c2ccccc23)cc1` (stereo not drawn) [Compound 51, 1-methyl-5′-(4-methylphenyl)-3′H-spiro[indole-3,2′-[1,3,4]thiadiazol]-2(1H)-one], the “% Inhibition” value rises from 1.9% to 4.6%.

Going from `Cc1ccc(C2=NNC3(S2)C(=O)Nc2ccc(C)cc23)cc1` (stereo not drawn) [Compound 49, 5-methyl-5′-(4-methylphenyl)-3′H-spiro[indole-3,2′-[1,3,4]thiadiazol]-2(1H)-one] to “1-[2-(dimethylamino)ethyl]-5′-(4-methoxyphenyl)-3′H-spiro[indole-3,2′-[1,3,4]thiadiazol]-2(1H)-one [Compound 11]”, the “% Inhibition” value rises from 3% to 30%.

Same assay, conditions: positive control at 10 nM

In the case of `CNC(=O)[C@H](Cc1ccccc1)NC(=O)[C@H](CC(C)C)[C@H](CSc1cccs1)C(=O)NO` [N2-{(2R)-2-[(1S)-1-Hydroxycarbamoyl-2-(thiophen-2-ylsulfanyl)-ethyl]-4-methyl-pentanoyl}-N-methyl-L-phenylalaninamide, reference compound], the inhibition at 0.01 µM is reported as 40%.

Same assay, conditions: positive control at 20 nM

In the case of `CNC(=O)[C@H](Cc1ccccc1)NC(=O)[C@H](CC(C)C)[C@H](CSc1cccs1)C(=O)NO` [N2-{(2R)-2-[(1S)-1-Hydroxycarbamoyl-2-(thiophen-2-ylsulfanyl)-ethyl]-4-methyl-pentanoyl}-N-methyl-L-phenylalaninamide, reference compound], the inhibition at 0.02 µM is reported as 60%.

Same assay, conditions: positive control at 200 nM

In the case of `CNC(=O)[C@H](Cc1ccccc1)NC(=O)[C@H](CC(C)C)[C@H](CSc1cccs1)C(=O)NO` [N2-{(2R)-2-[(1S)-1-Hydroxycarbamoyl-2-(thiophen-2-ylsulfanyl)-ethyl]-4-methyl-pentanoyl}-N-methyl-L-phenylalaninamide, reference compound], the inhibition at 0.2 µM is reported as 100%.

Same assay, conditions: positive control; read-out: Agg2 IC50

Compound `CNC(=O)[C@H](Cc1ccccc1)NC(=O)[C@H](CC(C)C)[C@H](CSc1cccs1)C(=O)NO` [N2-{(2R)-2-[(1S)-1-Hydroxycarbamoyl-2-(thiophen-2-ylsulfanyl)-ethyl]-4-methyl-pentanoyl}-N-methyl-L-phenylalaninamide, reference compound] has an IC50 of 36 nM.
